Legend:
AIMP2-DX2 = target: T1, AIMP2-DX2 (Homo sapiens, UniProt Q13155); experiment: DX2-nanoluciferase assay (DX2 expression change) in transfected A549 cells; details: inhibitory effect on AIMP2-DX2 expression; for DX-Nanoluciferase activity (40 μM): 4 hours treatment, A549 cells transfected with nanoluciferase-DX2; for inhibition at 40 µM: A549, 4 h, read-out: DX-Nanoluciferase activity (40 μM), 40 μM, 4 hours treatment, A549 cells transfected with nanoluciferase-DX2
T1 sequence (Q13155 1-251 isoform Q13155-2): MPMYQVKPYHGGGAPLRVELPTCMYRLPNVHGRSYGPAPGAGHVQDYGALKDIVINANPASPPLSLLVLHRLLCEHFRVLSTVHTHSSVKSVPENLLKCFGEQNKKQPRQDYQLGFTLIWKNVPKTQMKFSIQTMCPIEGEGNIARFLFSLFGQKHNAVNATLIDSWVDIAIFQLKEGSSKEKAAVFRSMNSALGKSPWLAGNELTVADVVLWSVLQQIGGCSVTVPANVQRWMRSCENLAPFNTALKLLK
Procedure: After cloning DX2 into a plasmid expressing nanoluciferase, the plasmid was transfected into A549 cells. Transfected cells were seeded 1×10^4 per well in a 96-well plate and stabilized for 12 hours. […] Cell viability was measured by the MTT method after 72 hours of treatment with each concentration of the compound in A549 cells.

A549 cells = experiment: Cell viability by MTT method in A549 cells; format: cell-based; set-up: concentration or dose not given beside the values; details: 72 hours treatment

SMILES	DX-Nanoluciferase activity (40 μM) (AIMP2-DX2)	Cell Viability (% inhibition) (A549) (A549 cells) [%]	inhibition at 40 µM (AIMP2-DX2) [%]
CC(C)C[C@H](NC(=O)CCS(=O)(=O)c1ccccc1)C(=O)OCc1ccccc1 [Compound 54, (S)-benzyl 4-methyl-2-(3-(phenylsulfonyl)propanamido)pentanoate]	33.7 ± 4.3	84.05 ± 2.61	
CC(C)C[C@H](NC(=O)Nc1ccccc1)C(=O)N1CCOCC1 [Compound 56, (S)-1-(4-Methyl-1-morpholino-1-oxopentan-2-yl)-3-phenylurea]		32.07	33 ± 10.7
CC(C)C[C@H](NC(=O)c1ccc(C(C)(C)C)cc1)C(=O)N1CCOCC1 [Compound 57, (S)-4-tert-Butyl-N-(4-methyl-1-morpholino-1-oxopentan-2-yl)benzamide]		−4.86 ± 4.95	63.8 ± 11
CC(C)C[C@H](NC(=O)CCS(=O)(=O)c1ccccc1)C(=O)N1CCOCC1 [Compound 58, (S)—N-(4-Methyl-1-morpholino-1-oxopentan-2-yl)-3-(phenylsulfonyl)propanamide]		−0.81 ± 4.95	63.1 ± 4.5
CC(C)C[C@H](NC(=O)c1ccc(C(C)(C)C)cc1)C(=O)Nc1ccc(N2CCOCC2)cc1 [Compound 59, (S)-4-tert-Butyl-N-(4-methyl-1-(4-morpholinophenylamino)-1-oxopentan-2-yl)benzamide]		90.03 ± 0.97	45.7 ± 8.28
CC(C)C[C@H](NC(=O)c1ccc2c(c1)OCO2)C(=O)Nc1ccc(N2CCOCC2)cc1 [Compound 60, (S)—N-(4-Methyl-1-(4-morpholinophenylamino)-1-oxopentan-2-yl)benzo[d][1,3]dioxole-5-carboxamide]		9.46 ± 9.67	35.7 ± 10.2
CC(C)C[C@H](NC(=O)CCS(=O)(=O)c1ccccc1)C(=O)Nc1ccc(N2CCOCC2)cc1 [Compound 61, (S)-4-Methyl-N-(4-morpholinophenyl)-2-(3-(phenylsulfonyl)propanamido)pentanamide]		−1.25 ± 3.63	60.3 ± 4.8
Cc1cc(C)cc(S(=O)(=O)N[C@@H](Cc2c[nH]c3ccccc23)C(=O)Nc2ccc(N3CCOCC3)cc2)c1 [Compound 66, (S)-2-(3,5-Dimethylphenylsulfonamido)-3-(1H-indol-3-yl)-N-(4 morpholinophenyl)propanamide]		77.25 ± 0.82	42.4 ± 3.97
O=C(Nc1ccc(N2CCOCC2)cc1)[C@H](Cc1c[nH]c2ccccc12)NS(=O)(=O)c1ccc(F)cc1 [Compound 67, (S)-2-(4-Fluorophenylsulfonamido)-3-(1H-indol-3-yl)-N-(4-morpholinophenyl)propanamide]		69.20 ± 2.10	44.5 ± 14.2
O=C(Nc1ccc(N2CCOCC2)cc1)[C@H](Cc1c[nH]c2ccccc12)NS(=O)(=O)c1ccc(C(F)(F)F)cc1 [Compound 68, (S)-3-(1H-indol-3-yl)-N-(4-morpholinophenyl)-2-(4-(trifluoromethyl)phenylsulfon-amido)propanamide]	48.06 ± 6.78	76.90 ± 0.51	
Cc1ccc(S(=O)(=O)N[C@@H](Cc2c[nH]c3ccc(O)cc23)C(=O)Nc2ccc(N3CCOCC3)cc2)cc1 [Compound 69, (S)-3-(5-Hydroxy-1H-indol-3-yl)-2-(4-methylphenylsulfonamido)-N-(4-morpholinophenyl)propanamide]		20.62 ± 5.14	48.4 ± 11.6
Cc1ccc(S(=O)(=O)N[C@@H](Cc2c[nH]c3ccccc23)C(=O)N2CCOCC2)cc1 [Compound 70, (S)—N-(3-(1H-indol-3-yl)-1-morpholino-1-oxopropan-2-yl)-4-methylbenzenesulfonamide]		23.61 ± 2.18	59.7 ± 3.49
Cc1ccc(S(=O)(=O)N[C@@H](Cc2c[nH]c3ccccc23)C(=O)Nc2ncc(N3CCOCC3)s2)cc1 [Compound 71, (S)-3-(1H-indol-3-yl)-2-(4-methylphenylsulfonamido)-N-(5-morpholinothiazol-2-yl)propan amide]	54.64 ± 13.30	72.71 ± 0.97	
Cc1ccc(S(=O)(=O)N[C@@H](Cc2c[nH]c3ccccc23)C(=O)Nc2ccc(N3CCOCC3)cc2)c(C)c1 [Compound 72, (S)-2-(2,4-Dimethylphenylsulfonamido)-3-(1H-indol-3-yl)-N-(4-morpholinophenyl)propanamide]		73.73 ± 0.78	21.5 ± 7.62
CCOC(=O)C(Cc1c[nH]c2ccc(C(=O)O)cc12)NS(=O)(=O)c1ccc(C)cc1 (stereo not shown) [Compound 73, 3-(3-Ethoxy-2-(4-methylphenylsulfonamido)-3-oxopropyl)-1H-indole-5-carboxylic acid]		4.32 ± 2.95	44.2 ± 3.91
Cc1ccc(S(=O)(=O)N[C@@H](Cc2cn(S(=O)(=O)c3ccc(C)cc3)cn2)C(=O)Nc2ccc(N3CCOCC3)cc2)cc1 [Compound 74, (S)-2-(4-Methylphenylsulfonamido)-N-(4-morpholinophenyl)-3-(1-tosyl-1H-Imidazol-4-yl)propanamide]		45.34 ± 4.64	56.2 ± 14.5
Cc1ccc(S(=O)(=O)N[C@@H](Cc2c[nH]c3ccccc23)C(=O)Nc2ccc(N3C[C@@H](C)O[C@@H](C)C3)nc2)cc1 [Compound 75, (S)—N-(6-((2S,6R)-2,6-dimethylmorpholino)pyridin-3-yl)-3-(1H-indol-3-yl)-2-(4-methylphenylsulfonamido)propanamide]		79.58 ± 3.72	57.8 ± 8
Cc1ccc(S(=O)(=O)N[C@@H](Cc2c[nH]c3ccccc23)C(=O)Nc2ccc(N3CCOCC3)c(F)c2)cc1 [Compound 77, (S)—N-(3-fluoro-4-morpholinophenyl)-3-(1H-indol-3-yl)-2-(4-methylphenylsulfonamido)propanamide]		80.59 ± 1.49	23.9 ± 7.01
O=C(Nc1ccc(N2CCOCC2)cc1)[C@H](Cc1c[nH]c2ccccc12)NS(=O)(=O)c1ccc([N+](=O)[O-])cc1 [Compound 78, (S)-3-(1H-indol-3-yl)-N-(4-morpholinophenyl)-2-(4-nitrophenylsulfonamido)propanamide]		67.08 ± 1.45	44.5 ± 12.7
O=C(Nc1ccc(N2CCOCC2)cc1)[C@H](Cc1c[nH]c2ccccc12)NS(=O)(=O)c1ccc(Br)cc1 [Compound 79, (S)-2-(4-Bromophenylsulfonamido)-3-(1H-indol-3-yl)-N-(4-morpholinophenyl)propanamide]		78.31 ± 1.91	30.6 ± 15.3
COc1ccc(S(=O)(=O)N[C@@H](Cc2c[nH]c3ccccc23)C(=O)Nc2ccc(N3CCOCC3)cc2)cc1 [Compound 80, (S)-3-(1H-indol-3-yl)-2-(4-methoxyphenylsulfonamido)-N-(4-morpholinophenyl)propanamide]		38.64 ± 1.03	44.9 ± 13.3
CC(C)c1ccc(S(=O)(=O)N[C@@H](Cc2c[nH]c3ccccc23)C(=O)Nc2ccc(N3CCOCC3)cc2)cc1 [Compound 81, (S)-3-(1 Indol-3-yl)-2-(4-isopropylphenylsulfonamido)-N-(4 morpholinophenyl)propanamide]	77.74 ± 6.75	73.98 ± 0.39	
COc1ccc(-c2csc(NC(=O)[C@H](Cc3c[nH]c4ccccc34)NS(=O)(=O)c3ccc(C(C)C)cc3)n2)cc1 [Compound 82, (S)-3-(1H-indol-3-yl)-2-(4-isopropylphenylsulfonamido)-N-(4-(4-methoxyphenyl)thiazol-2-yl)propanamide]		96.64 ± 0.09	29.3 ± 2.7
Cc1ccc(S(=O)(=O)N[C@@H](Cc2c[nH]c3ccccc23)C(=O)Nc2nc(C)cs2)cc1 [Compound 83, (S)-3-(1H-indol-3-yl)-2-(4-methylphenylsulfonamido)-N-(4-methylthiazol-2-yl)propanamide]		97.43 ± 2.01	17.4 ± 3.23
Cc1ccc(S(=O)(=O)N[C@@H](Cc2c[nH]c3ccccc23)C(=O)Nc2nc3ccccc3s2)cc1 [Compound 84, (S)—N-(benzo[d]thiazol-2-yl)-3-(1H-indol-3-yl)-2-(4-methylphenylsulfonamido)propanamide]		20.93 ± 11.89	-15.8 ± 6.29
O=C(O)[C@H](Cc1c[nH]c2ccccc12)NS(=O)(=O)c1ccc(Br)cc1 [Compound 85, (S)-2-(4-Bromophenylsulfonamido)-3-(1H-indol-3-yl)propanoic acid]		10.28 ± 3.54	20.2 ± 1.65
